Columns and labels:
[1] = Whole blood stability; type: in vitro ADME; settings: 37° C., time points 0, 1, 2, 4 hr, LC/MS/MS; for half-life at 5 µM: mouse, whole blood, read-out: Whole Blood Stability (T1/2) hr. Mouse (converted)
Protocol: Test compounds were prepared as a 500 μM stock solution in DMSO (Adding 10 μl of 10 mM DMSO stock solution to 190 μl of 100% DMSO). Whole blood was thawed on ice. A whole blood plate was prepared by adding 460 μl of the whole blood (different species as needed) to a 96-well in ml deep well plate. The whole blood plate was preincubated at 37° C. for 10 min. 4 μl of compound solution and 396 μl of whole blood was added to the plate and mixed thoroughly. Each sample was aliquoted (30 μl) to the incubation plate (cluster tubes) and quenched at time zero with ice-cold 100% ACN, and the incubation plates were added to the 37° C. incubator (200 μl).
The time zero sample was maintained at 4° C. until centrifuged. All other samples were quench at different time points (1, 2, 4 hr), vortexed for 30 seconds and centrifuged at 3500 rpm for 15 min at 4° C. 30 μl of supernatant was added to 170 μl 0.1% FA aqueous solution and the sample was analyzes by LC/MS/MS.

[2] = target: T1, KRAS G12C 1-169, his-tagged protein, GDP-loaded (Homo sapiens, UniProt P01116, G12C); experiment: Biochemical assay: covalent modification of KRAS G12C measured by mass spectrometry (RapidFire/TOF or Q-Exactive); settings: covalent binding to KRAS G12C; compounds of structure (III)
T1 construct: KRAS G12C 1-169, his-tagged protein, GDP-loaded
Method in brief: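 Covalent adduct formation read by intact-mass spectrometry (TOF or Q Exactive Plus, charge envelopes deconvoluted into modified and unmodified species) after formic acid quench. Reactions contained 2 μM GDP-bound KRAS G12C 1-169 (his-tag) in Hepes/NaCl/MgCl2 buffer plus 10, 30 or 100 μM final compound, held 30 min, 2 h or 24 h at room temperature.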

Row | Whole Blood Stability (T1/2) hr. Mouse [1] [h] | half-life at 5 µM [1] [h] | SMILES | Binding % [2]
1 | 11.1 |  | C=CC(=O)N1[C@H](C)CN(c2ncnc3c(F)c(-c4c(O)cccc4F)c(Cl)cc23)C[C@@H]1C [III-15, 1-((2S,6R)-4-(6-chloro-8-fluoro-7-(2-fluoro-6-hydroxy-phenyl)quinazolin-4-yl)-2,6-dimethyl-piperazin-1-yl)prop-2-en-1-one] | ++ (++ indicates activity from 50% to 90%)
2 |  | 9.9 | C=CC(=O)N1C[C@H](C)N(c2ncnc3c(F)c(-c4c(O)cccc4F)c(Cl)cc23)[C@@H](C)C1 [III-37, 1-((3S,5S)-4-(6-chloro-8-fluoro-7-(2-fluoro-6-hydroxy-phenyl)quinazolin-4-yl)-3,5-dimethyl-piperazin-1-yl)prop-2-en-1-one] | ++ (++ indicates activity from 50% to 90%)
3 |  | 10.9 | C=CC(=O)N1[C@H](C)CN(c2ncnc3c(F)c(-c4c(O)cccc4F)c(Cl)cc23)C[C@@H]1C (atropisomer, axis not shown) [III-29, 1-((2S,6R)-4-((R)-6-chloro-8-fluoro-7-(2-fluoro-6-hydroxy-phenyl)quinazolin-4-yl)-2,6-dimethyl-piperazin-1-yl)prop-2-en-1-one] | + (+ indicates binding activity up to 50%)

From patent US10829458B2 (Araxes Pharma LLC, priority 2015, dated 2020)
